Structures are written as SMILES.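 1) Cells in 96-well plates. 2) Compound, 48 h, 5 concentrations. 3) Linear interpolation between surrounding doses. 4) Unreached endpoint = highest concentration. GI50 = concentration required for 50% inhibition of growth.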 The source made the active and inactive calls. No stated cut-off is given here; in the data, active = GI50 up to about 1.1 µM and inactive = higher. Residues, ends and D or L forms follow the SMILES beside them. *: point of attachment. Cbz = O=C(OCc1ccccc1)*

The source of these data is ChEMBL document CHEMBL1201862, “PubChem BioAssay data set” (2004).

Among the test systems are Hs-578T; BT-549; DMS-273; M19-MEL; DLD-1; XF498; LXFL 529; HOP-18.
What all share (test): NCI anticancer screen, dose series, 48 h

Turning to `O=C1Nc2ccccc2C1Cc1ccccc1` (stereo not given), the GI50 in the assay on Hs-578T is > 100 µM (inactive).
As to `CC1C2(C)OC(=N)C(C#N)(C(C)O2)C1(C#N)C#N` (stereo not given), the GI50 was 31.6 µM (inactive) in the assay on BT-549 and 29.4 µM (inactive) in the assay on Hs-578T.
Turning to `O=C1c2ccccc2C(=O)c2[nH]cnc21`, the GI50 in the assay with DMS-273 was 46.8 µM (inactive); in the assay on M19-MEL it was 20.4 µM (inactive); in the assay on DLD-1 it was 27 µM (inactive); with XF498 it was 32.7 µM (inactive).
Regarding `COC(=O)C(=O)C(C(=O)C(=O)Nc1ccc([N+](=O)[O-])cc1C#N)c1nc2ccc([N+](=O)[O-])cc2nc1O` (stereo not given), the GI50 is > 100 µM (inactive) in the assay with DMS-273; > 100 µM (inactive) in the assay on LXFL 529; > 100 µM (inactive) with M19-MEL; > 100 µM (inactive) in the assay with DLD-1; 34.8 µM (inactive) with HOP-18.
On to `CCOC(=O)C1Cc2[nH]c3ccccc3c2C(C)C1C` (stereo not given), for which the GI50 in the assay with DMS-273 is 15.1 µM (inactive); in the assay on LXFL 529, 19.9 µM (inactive); in the assay on DLD-1, 15.8 µM (inactive); in the assay with XF498, 16.7 µM (inactive).
Take `CCN1CCN=c2c3cc(OC)ccc3n3cnc4ccc1c2c43`: in the assay with Hs-578T, the GI50 was 0.313 µM (active).
Take `Cn1c(=O)[nH]c2[nH]c3ccccc3c2c1=O`: the results for the GI50 with BT-549 and in the assay with Hs-578T were > 100 µM (inactive) and 65.5 µM (inactive), respectively.
For the compound `CN(C)CCCNC(=O)c1cc(NC(=O)CCCn2c3ccccc3c3ccccc32)cn1C`, the GI50 in the assay on BT-549 is > 100 µM (inactive).
For `COC(=O)c1ccc2c(c1)S/C(=C/c1ccc3ccc4cccc5ccc1c3c45)S2`, the GI50 in the assay on BT-549 is 35.8 µM (inactive); in the assay on Hs-578T, 37.9 µM (inactive).
In the same order, the values of `N=C(N)c1ccc(/C=C/c2ccc(C(=N)N)cc2)cc1` are > 100 µM (inactive) and 48 µM (inactive).
As for `C1OCN2c3nonc3N3COCN4c5nonc5N1C2C43` (stereo not given), the GI50 with BT-549 and in the assay with Hs-578T was > 100 µM (inactive) each time.
`COc1ccc2oc(=O)c(-c3csc(C)n3)cc2c1`: the GI50 with BT-549 is 15.8 µM (inactive); in the assay on Hs-578T it was 30.7 µM (inactive).
For `CC(=O)OC1c2ccccc2CCCCCCC12OCCO2` (stereo not given), the GI50 in the assay with DLD-1 and in the assay with HOP-18 was > 100 µM (inactive) throughout.
Regarding `COc1ccc(/C=C2/CCS(=O)(=O)c3ccc(C)cc3C2=O)cc1OC`, the results for the GI50 with BT-549 and in the assay on Hs-578T were 9.27 µM (inactive) and 11.5 µM (inactive), respectively.
For `CC(C)(C)c1ccc2c(c1)CNCCNCc1cc(C(C)(C)C)ccc1OCC1(CO2)COc2ccc(C(C)(C)C)cc2CNCCNCc2cc(C(C)(C)C)ccc2OC1`, in that order: 1.71 µM (inactive) and 1.06 µM (active).
In the same order, the values of `CCOC(=O)N1CCN(Cc2cc(=O)n3ccc(C)cc3n2)CC1` are > 100 µM (inactive) and > 100 µM (inactive).
With `COc1ccc(/C=C/NC=O)cc1`, the GI50 with BT-549 and in the assay with Hs-578T was > 100 µM (inactive) throughout.
Take `COc1ccc(/N=C(/[N-]n2c(=O)c(C)nn(C)c2=S)N(c2ccc(OC)cc2)c2n[n+]3c(=O)c(C)nn(C)c3s2)cc1`: the GI50 in the assay on DMS-273, in the assay on LXFL 529, in the assay on M19-MEL, in the assay with DLD-1 and with HOP-18 was > 100 µM (inactive) throughout.
Take `CS(=O)(=O)N(CCC#N)c1ccc(/C=N/NC(=O)CC(=O)Nc2cccc(Cl)c2)cc1`: the GI50 in the assay with DMS-273, in the assay on LXFL 529, in the assay on M19-MEL, in the assay with DLD-1 and in the assay with HOP-18 was > 100 µM (inactive) in each case.
In the case of `Oc1c(N2CCCCC2)cc(-c2cc(N3CCCCC3)c(O)c3ccccc23)c2ccccc12`, the GI50 in the assay with Hs-578T was 27.7 µM (inactive).
`COc1ncc(C=C(C#N)C#N)c(OC)n1`: the GI50 with BT-549 is 33.7 µM (inactive); in the assay on Hs-578T it was 60.7 µM (inactive).
In the same order, the values of `COc1ccc(OC)c2c1C=CC(Br)=CC2` are 0.303 µM (active) and 0.224 µM (active).
For `CSc1nc(=O)c(C#N)c(-c2ccccc2)n1C1OC(COC(C)=O)C(OC(C)=O)C(OC(C)=O)C1OC(C)=O` (stereo not given), the GI50 was > 100 µM (inactive) in the assay with BT-549 and 39.8 µM (inactive) in the assay on Hs-578T.
For `CCN(CC)CCNc1c(OC)cc(C)c2sc3ccccc3c(=O)c12`, in that order: 11.7 µM (inactive) and 7.5 µM (inactive).
Turning to `NNC(=O)c1ccccc1NC(=O)/C(=C/c1ccccc1)NC(=O)c1ccccc1`, the GI50 in the assay on BT-549 was 60.4 µM (inactive); in the assay on Hs-578T it was 54.1 µM (inactive).
Turning to `COc1c(C)c(OC)c2c(c1O)[C@@H]1[C@@H]3Cc4c(OC)c(C)c(OC)c(O)c4[C@H](CNC(=O)c4ccc5ccccc5n4)N3[C@@H](C#N)[C@H](C2)N1C`, the GI50 with BT-549 is 0.000377 µM (active); with Hs-578T, 0.00124 µM (active).
For `CC1CCc2c(sc3ncnc(N/N=C/c4ccc(Cl)c(Cl)c4)c23)C1` (stereo not given), the GI50 with DMS-273 was 7.98 µM (inactive); with M19-MEL it was 19.8 µM (inactive); in the assay on DLD-1, 9.33 µM (inactive).
For `CC(C)CC(C#CCCOC(=O)c1ccccc1)OC(=O)c1ccccc1` (stereo not given), the GI50 in the assay on BT-549 and in the assay with Hs-578T was > 10 µM (inactive) each time.
In the case of `Cc1ccc(S(=O)(=O)N(CC(O)COc2ccccc2)c2c(F)c(F)c(F)c(F)c2F)cc1` (stereo not given), the values for the GI50 in the assay with BT-549 and with Hs-578T were 13.5 µM (inactive) and 18.5 µM (inactive), respectively.
`Cc1ccc(/C=C2\CCCC(CN3CCCCC3)C2=O)cc1` (stereo not given): the GI50 was 2.29 µM (inactive) in the assay with BT-549 and 2.13 µM (inactive) in the assay on Hs-578T.
Turning to `CCOC(=O)CSc1nc(N)c2c(-c3ccccc3)c3c(nc2n1)CCCC3`, the figures for the GI50 in the assay on BT-549 and with Hs-578T were > 100 µM (inactive) and 65.8 µM (inactive), respectively.
For `Cc1cccc(-n2c(C)nc3ccc(NC4OC(CO)C(O)C(O)C4O)cc3c2=O)c1` (stereo not given), in that order: > 100 µM (inactive) and > 100 µM (inactive).
`COc1ccc(C)cc(O)c1=O`: the GI50 with DMS-273 was 44.7 µM (inactive); in the assay on LXFL 529 it was 16.2 µM (inactive); in the assay with M19-MEL it was 32.3 µM (inactive); in the assay with DLD-1 it was 35.1 µM (inactive); with HOP-18 it was 40.9 µM (inactive).
Consider `CCCn1c(SCCSc2c3ccccc3c(-c3nc(F)nc(F)n3)n2CCC)c2ccccc2c1-c1nc(F)nc(F)n1`, for which the GI50 in the assay on DMS-273 is > 100 µM (inactive); with LXFL 529, 88.9 µM (inactive); in the assay with DLD-1, 20.5 µM (inactive); in the assay with HOP-18, > 100 µM (inactive).
Turning to `CN1CCCN2CCN(C)CCN(CC1)CC2`, the GI50 in the assay with BT-549 and in the assay with Hs-578T was > 100 µM (inactive) each time.
For the compound `CCOc1ccc2ccccc2c1NC1=NCCO1`, in the assay on Hs-578T, the GI50 was 23.1 µM (inactive).
Take `O=[N+]([O-])C1=Cc2c(O)ccc(O)c2C2c3ccccc3NC12` (stereo not given): the GI50 in the assay on BT-549 is 12.3 µM (inactive); with Hs-578T, 26.1 µM (inactive).
Consider `CCOC(=O)C(C(N)=O)C1=Nc2cc([N+](=O)[O-])ccc2N/C1=C\C(=O)c1ccccc1` (stereo not given), for which the GI50 in the assay with BT-549 was 21.7 µM (inactive); in the assay with Hs-578T it was 16.5 µM (inactive).
For `CO[C@]12C[C@@H](CNC(=O)c3cc(Br)c[nH]3)O[C@H]1NC(=O)N2`, in that order: > 100 µM (inactive) and > 100 µM (inactive).
For `CCN(CC)c1c(C(C)(C)C)c(=O)n2ccsc2c1OC(C)=O`, in that order: 15.5 µM (inactive) and 22.9 µM (inactive).
For `C/C(Cl)=N/OC(=O)Nc1ccc(S(N)(=O)=O)c(C)c1`, in that order: 12.3 µM (inactive) and 43.4 µM (inactive).
As for `C[C@@H]1C[C@](O)([C@@H](C)Cl)C(=O)O[C@@H]2CCN3CC=C(COC(=O)[C@]1(C)O)[C@H]23`, the GI50 in the assay on BT-549 and in the assay on Hs-578T was > 100 µM (inactive) throughout.
In the case of `CO[C@]12CCC(=O)N1C=Cc1c2[nH]c2ccccc12`, the GI50 in the assay on LXFL 529, with M19-MEL, in the assay with DLD-1 and with HOP-18 was > 100 µM (inactive) in each case.
In the case of `O=c1c2ccc(Cl)cc2oc2c(CNc3ccc(S(=O)(=O)Nc4nccs4)cc3)cccc12`, in the assay on BT-549, the GI50 was > 100 µM (inactive).
Take `COC(=O)[C@H](Cc1c[nH]c2ccccc12)NC(=O)OCC1OC(n2cc(C)c(=O)[nH]c2=O)CC1N=[N+]=[N-]` (stereo not given in full): the GI50 was > 100 µM (inactive) with BT-549 and 46.3 µM (inactive) in the assay with Hs-578T.
For `C1=C2C3=[N+](CCCC3)CC2Cc2sccc21` (stereo not given), in that order: 82.6 µM (inactive) and > 100 µM (inactive).
In the same order, the values of `Cc1nn(C(=O)c2ccc(Cl)cc2)c2c1C(c1cccc([N+](=O)[O-])c1)SC(=N)N2` (stereo not given) are > 10 µM (inactive) and > 10 µM (inactive).
Consider `COc1nc(N)nc2c1ncn2C1CC(O)C(CO)O1` (stereo not given), for which the GI50 in the assay with BT-549 and with Hs-578T was > 100 µM (inactive) in each case.
`N=C(N)c1ccc(/N=N/c2c(O)ccc3cc(O)ccc23)cc1`: the GI50 in the assay with BT-549 and with Hs-578T was > 100 µM (inactive) in each case.
`COc1cccc(-c2ccc3c4c2O[C@H]2c5[nH]c6ccccc6c5C[C@@]5(O)[C@@H](C3)N(CC3CC3)CC[C@]425)c1`: the results for the GI50 in the assay on BT-549 and with Hs-578T were 4.83 µM (inactive) and 1.49 µM (inactive), respectively.
In the same order, the values of `C[C@H](CCC(=O)NCCS(=O)(=O)O)[C@H]1CC[C@H]2[C@@H]3[C@H](O)C[C@@H]4C[C@H](O)CC[C@]4(C)[C@H]3CC[C@]12C` are > 100 µM (inactive) and > 100 µM (inactive).
Take `O=S(=O)(O)c1cccc2c(/N=N/c3c(O)ccc4ccccc34)cccc12`: the GI50 with BT-549 and in the assay on Hs-578T was > 100 µM (inactive) throughout.
Turning to `COc1cc(C2c3cc4c(cc3[C@@H](NCCN3CCCCC3)C3COC(=O)[C@H]23)OCO4)cc(OC)c1O` (stereo not given in full), the GI50 with DMS-273 is 0.123 µM (active); with LXFL 529 it was 2 µM (inactive); with M19-MEL, 1 µM (active); in the assay on DLD-1, 1.6 µM (inactive); in the assay on HOP-18, 0.509 µM (active).
Consider `c1ccc(-c2nc(-c3ccccc3)c(-c3ccccc3)[nH]2)cc1`, for which the GI50 with BT-549 is > 100 µM (inactive); with Hs-578T, 23.9 µM (inactive).
Consider `CC(NC(=O)C(NC(=O)OCc1ccccc1)C(C)C)C(=O)NCC(=O)O` (stereo not drawn) (Cbz-Val-Ala-Gly-OH; configuration not given here), for which the GI50 in the assay on BT-549 and in the assay with Hs-578T was > 100 µM (inactive) throughout.
As for `CCCCCCCCCCCC/C=C\CC[C@@H](O)[C@H](O)CC[C@H](O)[C@@H]1CC[C@@H](CCCCCCCC2=C[C@H](C)OC2=O)O1` [GIGANTRIONENIN], the GI50 in the assay on BT-549 was 0.00819 µM (active); in the assay with Hs-578T it was 3.03 µM (inactive).
